Test results from patent US20260286396A1, “AXL KNOCK OUT CAR T CELLS AND METHODS FOR USE THEREOF” (priority 2023, published 2026).

System: CART19 cells
Experiment: RNA sequencing of CART19 cells with Ingenuity pathway analysis (pathways, upstream regulators)
Assay type: cell-based, human
Conditions: CART19+JeKo-1, 30 nM TP-0903 vs vehicle, 24 h
Description: CART19 cells were isolated using CD4 and CD8 microbeads to […] the JeKo-1 target cells; this isolation step was performed twice to eliminate the possible contamination of JeKo-1 cells. RNA was isolated from the CART19 cells using QIAGEN RNEASY® Plus Mini Kit. RNA was further treated with DNase I (QIAGEN) and purified using RNA Clean & Concentrator (Zymo Research). […] The fastq files were viewed in FastQC to check for quality (Cox et al., Mol Ther., 29 (4): 1529-1540, 2020). After verifying the lack of adapter sequences with FastQC, Cutadapt (Martin, EMBnet, 17:10-12, 2011) was used to filter for reads greater than 32 base pairs. Output files were re-checked for quality using FastQC. The latest human reference genome (GRCh38.p13) was downloaded from NCBI. Genome index files were generated using STAR (Cox et al. 2020, supra, and Dobin et al., Bioinformatics, 29:15-21, 2012). Paired end reads from fastq files were mapped to the genome for each condition. HTSeq was used to generate expression counts for each gene (Cox et al. 2020, supra; and Putri et al., Bioinformatics, 38:2943-2945, 2022). […] The disruption efficiency of the CRISPR/Cas9 GM-CSF knockout was determined using targeted sequencing through PCR and TIDE analysis (software available at tide.nki.nl) as described elsewhere (Sakemura et al. 2021, supra).
RNA sequencing of CART19 cells was then performed. […] Data were analyzed with the use of QIAGEN Ingenuity Pathway Analysis (IPA) (digitalinsights.qiagen.com/IPA; Krämer et al., Bioinformatics 30 (4): 523-530, 2014).

`CN1CCN(Cc2ccc(Nc3ncc(Cl)c(Nc4ccccc4S(=O)(=O)N(C)C)n3)cc2)CC1` [TP-0903, Dubermatinib] was tested. Which “upstream regulator ALDH2 Activation Z-Score” value did it give?
The value was 1.432.

What about the “upstream regulator APP Activation Z-Score” value of the same compound?
Its value is −2.018.

And the “upstream regulator APP Predicted Activation State” value?
Its value is “inhibited”.

And the “upstream regulator ARNT Activation Z-Score” value?
The value was −1.795.

What about the “upstream regulator ATF3 Activation Z-Score” value of the same compound?
Its value is −1.227.

What about the “upstream regulator ATF4 Activation Z-Score” value of the same compound?
The value was −2.62.

And the “upstream regulator ATF4 Predicted Activation State” value?
Its value is “inhibited”.

What about the “upstream regulator BCAP31 Activation Z-Score” value of the same compound?
The value was −0.968.

And the “upstream regulator BCL3 Activation Z-Score” value?
Its value is −1.353.

What about the “upstream regulator BCL6 Activation Z-Score” value of the same compound?
Its value is 0.949.

And the “upstream regulator BCR (COMPLEX) Activation Z-Score” value?
The value was −1.126.

What about the “upstream regulator BMP7 Activation Z-Score” value of the same compound?
Its value is −1.089.

What about the “upstream regulator BMP10 Activation Z-Score” value of the same compound?
Its value is −0.707.

And the “upstream regulator BTK Activation Z-Score” value?
The value was −1.091.

What about the “upstream regulator C3 Activation Z-Score” value of the same compound?
Its value is −0.378.

What about the “upstream regulator CALCA Activation Z-Score” value of the same compound?
The value was 0.887.

What about the “upstream regulator CCK Activation Z-Score” value of the same compound?
The value was 0.437.

And the “upstream regulator CCL2 Activation Z-Score” value?
Its value is −1.368.

What about the “upstream regulator CCND1 Activation Z-Score” value of the same compound?
The value was 0.042.

And the “upstream regulator CD5 Activation Z-Score” value?
The value was −1.732.

What about the “upstream regulator CD28 Activation Z-Score” value of the same compound?
The value was −1.369.

What about the “upstream regulator CD38 Activation Z-Score” value of the same compound?
Its value is −1.353.

And the “upstream regulator CD40LG Activation Z-Score” value?
Its value is −2.045.

What about the “upstream regulator CD40LG Predicted Activation State” value of the same compound?
The value was “inhibited”.

And the “upstream regulator CD44 Activation Z-Score” value?
The value was −1.835.

What about the “upstream regulator CD274 Activation Z-Score” value of the same compound?
The value was 0.478.

What about the “upstream regulator CG Activation Z-Score” value of the same compound?
The value was −0.872.

And the “upstream regulator COMMD1 Predicted Activation State” value?
Its value is “activated”.

And the “upstream regulator DUSP10 Activation Z-Score” value?
Its value is 0.392.

What about the “upstream regulator EBF1 Activation Z-Score” value of the same compound?
Its value is −2.182.

And the “upstream regulator EBF1 Predicted Activation State” value?
Its value is “inhibited”.

What about the “upstream regulator EDN1 Activation Z-Score” value of the same compound?
The value was −1.02.

What about the “upstream regulator EIF2AK4 Activation Z-Score” value of the same compound?
Its value is −2.395.

What about the “upstream regulator EIF2AK4 Predicted Activation State” value of the same compound?
The value was “inhibited”.

What about the “upstream regulator ERBB2 Activation Z-Score” value of the same compound?
Its value is −2.46.

And the “upstream regulator ERBB2 Predicted Activation State” value?
The value was “inhibited”.

And the “upstream regulator ERK1/2 Activation Z-Score” value?
The value was −0.915.

What about the “upstream regulator ERK Activation Z-Score” value of the same compound?
The value was −2.029.

And the “upstream regulator ERK Predicted Activation State” value?
The value was “inhibited”.

And the “upstream regulator FHL2 Activation Z-Score” value?
Its value is −0.64.

What about the “upstream regulator FMR1 Activation Z-Score” value of the same compound?
Its value is 1.976.

And the “upstream regulator FYN Activation Z-Score” value?
The value was −1.446.

And the “upstream regulator HAVCR1 Activation Z-Score” value?
Its value is 0.104.

And the “upstream regulator HNF1A-AS1 Activation Z-Score” value?
Its value is −2.

And the “upstream regulator HNF1A-AS1 Predicted Activation State” value?
Its value is “inhibited”.

And the “upstream regulator ID3 Activation Z-Score” value?
Its value is 1.671.

And the “upstream regulator IFN ALPHA/BETA Activation Z-Score” value?
Its value is −1.195.

What about the “upstream regulator IGF1 Activation Z-Score” value of the same compound?
The value was −1.148.

What about the “upstream regulator IGF1R Activation Z-Score” value of the same compound?
The value was −0.652.

What about the “upstream regulator IKBKB Activation Z-Score” value of the same compound?
Its value is −2.146.

And the “upstream regulator IKBKB Predicted Activation State” value?
Its value is “inhibited”.

And the “upstream regulator IL1 Activation Z-Score” value?
Its value is −1.785.

And the “upstream regulator IL4R Activation Z-Score” value?
The value was −0.187.

And the “upstream regulator IL10 Activation Z-Score” value?
The value was 1.633.

And the “upstream regulator IL12 (FAMILY) Activation Z-Score” value?
The value was 1.39.

And the “upstream regulator IL15 Activation Z-Score” value?
Its value is −1.117.

What about the “upstream regulator IL18 Activation Z-Score” value of the same compound?
Its value is −0.28.

What about the “upstream regulator IL21 Activation Z-Score” value of the same compound?
Its value is 0.183.

What about the “upstream regulator IL27RA Activation Z-Score” value of the same compound?
The value was 2.207.

And the “upstream regulator IL27RA Predicted Activation State” value?
The value was “activated”.

What about the “upstream regulator INSIG1 Activation Z-Score” value of the same compound?
Its value is 1.495.

What about the “upstream regulator INSULIN Activation Z-Score” value of the same compound?
The value was −1.452.

And the “upstream regulator IRF4 Activation Z-Score” value?
The value was 0.415.

What about the “upstream regulator ITGB2 Activation Z-Score” value of the same compound?
Its value is −0.128.

And the “upstream regulator KCNIP3 Activation Z-Score” value?
The value was 0.378.

What about the “upstream regulator KDM1A Activation Z-Score” value of the same compound?
The value was 0.351.

And the “upstream regulator KRAS Activation Z-Score” value?
Its value is −0.772.

What about the “upstream regulator LEF1 Activation Z-Score” value of the same compound?
Its value is 0.367.

And the “upstream regulator LGALS3 Activation Z-Score” value?
The value was −0.747.

And the “upstream regulator LTA Activation Z-Score” value?
Its value is −1.763.

And the “upstream regulator LTB Activation Z-Score” value?
Its value is −1.246.

And the “upstream regulator LTBR Activation Z-Score” value?
Its value is −1.664.

And the “upstream regulator MAPK3 Activation Z-Score” value?
Its value is −0.896.

What about the “upstream regulator MAPK7 Activation Z-Score” value of the same compound?
Its value is −0.64.

And the “upstream regulator MBP Activation Z-Score” value?
Its value is 0.577.

What about the “upstream regulator MED1 Activation Z-Score” value of the same compound?
The value was −1.671.

What about the “upstream regulator MIR-29 Activation Z-Score” value of the same compound?
The value was 1.128.

What about the “upstream regulator MIR-450A-5P (AND OTHER MIRNAS W/SEED UUUGCGA) Predicted Activation State” value of the same compound?
Its value is “activated”.

And the “upstream regulator MIRLET7 Activation Z-Score” value?
The value was 0.

What about the “upstream regulator MLXIPL Predicted Activation State” value of the same compound?
The value was “inhibited”.

What about the “upstream regulator MTORC1 Activation Z-Score” value of the same compound?
The value was −2.087.

And the “upstream regulator MTORC1 Predicted Activation State” value?
Its value is “inhibited”.

And the “upstream regulator MYB Activation Z-Score” value?
Its value is −1.742.

And the “upstream regulator NFAT (FAMILY) Activation Z-Score” value?
Its value is −2.176.

And the “upstream regulator NFAT (FAMILY) Predicted Activation State” value?
Its value is “inhibited”.

And the “upstream regulator NFATC1 Activation Z-Score” value?
The value was −1.4.

What about the “upstream regulator NFE2L2 Activation Z-Score” value of the same compound?
The value was −1.966.

And the “upstream regulator NFIL3 Activation Z-Score” value?
Its value is −2.2.

And the “upstream regulator NFIL3 Predicted Activation State” value?
Its value is “inhibited”.

And the “upstream regulator NFKBIA Activation Z-Score” value?
The value was −0.758.

And the “upstream regulator NR4A2 Activation Z-Score” value?
Its value is 0.898.

And the “upstream regulator NREP Activation Z-Score” value?
The value was 0.218.

What about the “upstream regulator NRG1 Activation Z-Score” value of the same compound?
Its value is −1.949.

What about the “upstream regulator P38 MAPK Activation Z-Score” value of the same compound?
Its value is −2.405.

What about the “upstream regulator P38 MAPK Predicted Activation State” value of the same compound?
The value was “inhibited”.

And the “upstream regulator PDCD1 Activation Z-Score” value?
The value was 0.055.

And the “upstream regulator PDX1 Activation Z-Score” value?
Its value is 0.24.

And the “upstream regulator POSTN Activation Z-Score” value?
Its value is −1.

And the “upstream regulator PRDM1 Activation Z-Score” value?
The value was 0.122.

And the “upstream regulator PRKCZ Activation Z-Score” value?
Its value is −0.167.

And the “upstream regulator PTEN Activation Z-Score” value?
Its value is 0.449.

What about the “upstream regulator PTPRJ Activation Z-Score” value of the same compound?
The value was 0.

And the “upstream regulator RAS Activation Z-Score” value?
Its value is −2.375.

And the “upstream regulator RAS Predicted Activation State” value?
Its value is “inhibited”.

And the “upstream regulator RXRA Activation Z-Score” value?
The value was 1.069.

And the “upstream regulator SATB2 Activation Z-Score” value?
The value was −0.152.

And the “upstream regulator SIRT6 Activation Z-Score” value?
Its value is 0.064.

What about the “upstream regulator SMAD2 Activation Z-Score” value of the same compound?
Its value is −1.681.

And the “upstream regulator SMAD7 Activation Z-Score” value?
The value was −0.135.

And the “upstream regulator SNCA Activation Z-Score” value?
The value was −0.246.

What about the “upstream regulator SORL1 Activation Z-Score” value of the same compound?
The value was −2.714.

What about the “upstream regulator SORL1 Predicted Activation State” value of the same compound?
Its value is “inhibited”.

And the “upstream regulator SPI1 Activation Z-Score” value?
Its value is −1.174.

And the “upstream regulator SREBF1 Activation Z-Score” value?
The value was −3.191.
